How the values were obtained:
[1] = molecular target: T1, [Pyruvate dehydrogenase (acetyl-transferring)] kinase isozyme 1, mitochondrial (Homo sapiens, UniProt Q15118); experiment: Competitive binding affinity to recombinant N-terminal 6xHis-SUMO-tagged human PDK1 (29 to 436 residues) expressed in Escherichia coli BL-21 assessed as Kd of AZD7545 at 50 uM by isothermal titration calorimetric method (Rvb = 290.6 nM)
[2] = molecular target: T1, [Pyruvate dehydrogenase (acetyl-transferring)] kinase isozyme 1, mitochondrial; experiment: Competitive binding affinity to recombinant N-terminal 6xHis-SUMO-tagged human PDK1 (29 to 436 residues) expressed in Escherichia coli BL-21 assessed as Kd of ADP at 50 uM by isothermal titration calorimetric method (Rvb = 4.27 uM)

T1 sequence (Q15118 whole entry, the tested form may be a part): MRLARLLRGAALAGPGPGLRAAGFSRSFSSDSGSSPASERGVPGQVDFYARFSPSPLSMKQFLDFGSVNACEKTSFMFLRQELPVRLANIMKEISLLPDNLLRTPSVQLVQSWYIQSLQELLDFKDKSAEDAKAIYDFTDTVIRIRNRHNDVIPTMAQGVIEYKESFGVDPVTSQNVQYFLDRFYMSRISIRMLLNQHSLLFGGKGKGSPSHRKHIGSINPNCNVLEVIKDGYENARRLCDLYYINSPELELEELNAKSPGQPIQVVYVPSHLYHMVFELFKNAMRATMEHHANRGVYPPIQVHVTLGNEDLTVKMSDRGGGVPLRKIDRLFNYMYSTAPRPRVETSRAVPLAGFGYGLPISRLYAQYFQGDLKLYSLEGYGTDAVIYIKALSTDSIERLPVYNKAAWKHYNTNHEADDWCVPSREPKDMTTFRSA

Kd [1]: 0.291 µM
Kd [2]: 7.87 µM
SMILES: O=C(Nc1ccc(Cl)c(C(F)(F)F)c1)C(Cl)Cl
